What was measured:
melatonin receptor = assay: Action of inhibiting 2-[^125 I]iodomelatonin binding (forebrain membrane sample); set-up: species or system 7-days-old chicken (white leghorn); settings: 80 pM 2-[^125 I]iodomelatonin, chicken forebrain membranes, 90 minutes at 25° C., pH 7.7; non-specific binding with 10 μM melatonin; log-probit analysis; read-out: IC50 (50% inhibiting concentration), inhibition of 2-[^125 I]iodomelatonin binding
Description: Action of inhibiting 2-[^125 I]iodomelatonin binding
The forebrains of 7-days-old chicken (white leghorn) were homogenized with ice-cold assay buffer (50 mM Tris-HCl, pH 7.7 at 25° C.) and centrifuged at 44,000×g for 10 minutes at 4° C. The pellet was washed once with the same buffer. For the assay, the frozen tissue pellet was thawed and homogenized with the assay buffer to make a protein concentration of 0.3-0.4 mg/ml. In this way, the membrane sample was prepared. The membrane sample was incubated with a test compound and a ligand (80 pM 2-[^125 I]iodomelatonin, about 100,000 dpm) in a total volume of 0.5 ml for 90 minutes at 25° C. The reaction was terminated by adding 3 ml of ice-cold assay buffer immediately followed by vacuum filtration on Whatman GF/B which was further washed twice with 3 ml of ice-cold assay buffer. The radioactivity on the filter was determined by means of γ-counter. […] The 50% inhibiting concentration (IC50) was determined by the log-probit analysis.

metabolic enzymes = settings: Rinsho Kensa, Vol. 38, No. 11 (1994); cited from earlier work
central nervous system = settings: administered peripherally; Bioorganic & Medicinal Chemistry Letters, Vol. 4, p. 1485 (1994); cited from earlier work

SMILES	IC50 (melatonin receptor) [nM]	metabolism by metabolic enzymes in a living body (metabolic enzymes)	activity on central nervous system (central nervous system)
COc1ccc2nc(Cl)cc(CCNC(C)=O)c2c1 [Working Example 1, N-[2-(2-chloro-6-methoxyquinolin-4-yl)ethyl]acetamide]	8.4	–	–
COc1ccc2nc(Cl)cc(CCNC(=O)C(F)(F)F)c2c1 [compound 3]	8.9	–	–
COc1ccc2[nH]cc(CCNC(C)=O)c2c1 [melatonin, N-acetyl-5-methoxytryptamine]	–	readily metabolized	inactive

— patent US5708005A, “Quinolines, their production and use” (priority 1995, dated 1998)
